Structures can show the parent of a compound that is named as a salt.
Assays:
[1] = General cytotoxicity on HepG2 cells; format: cell-based; conditions: human; general cytotoxicity, HepG2 cells, 72 hours, average of several tests
Outline: (§1)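 HepG2 cells seeded at 2*10^4 cells per well and compounds added in DMEM with 2% FBS for 72 h at 37 °C. Viability read with Alamar Blue and CC50 derived as for IC50. Therapeutic index taken as HepG2 CC50 over H1975 IC50.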

[2] = test system: HepG2 cells; test: General cytotoxicity on HepG2 cells; format: cell-based; conditions: therapeutic index, CC50 HepG2 / IC50 H1975
Outline: as §1

[3] = Chemical stability in human blood plasma; format: in vitro ADME; conditions: pooled human blood plasma; 10 μm; 4 hours at 37° C.; substance amount remaining
Outline: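 Pooled plasma from ten healthy donors was spiked to 10 μM from a 10 mM DMSO stock and held 4 h at 37 °C. After acetonitrile protein precipitation, HPLC peak areas before and after incubation gave the percentage of compound remaining.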

[4] = molecular target: T1, DM EGFR (DoubleMutantEGFR, L828R/T790M) (Homo sapiens, UniProt P00533, L858R/T790M); test: Inhibition of DM EGFR kinase activity (ADP-Glo); format: biochemical; conditions: for IC50: inhibition of kinase activity, EGFR DM (L828R/T790M); for SI, IC50(WT)/IC50(DM): selectivity index, kinase EGFR WT vs EGFR DM
T1 construct: purchased SignalChem
Outline: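 Recombinant WT or double-mutant EGFR was incubated with a solution of 0.5 mg/mL peptide substrate and 50 μM ATP for 180 minutes at 37° C. Kinase activity was detected by ADP-Glo luminescence. IC50 values came from a four-parameter logistic fit.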

[5] = Enzyme stability in human liver S9 fractions; format: in vitro ADME; conditions: 0.5 mg/mL pooled human liver S9 fractions; 10 μM compound; 37° C.; pH 7.4; read-out: Stability in liver S9 fractions, Clint
Outline: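 Compound at 10 μM was incubated at 37 °C with 0.5 mg/mL pooled human liver S9, 2 mM β-NAD and 4 mM MgCl2 in 0.1 M sodium phosphate, pH 7.4, then quenched with acetonitrile and analysed chromatographically. T½ and CLint were derived from the slope of log peak area versus time.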

[6] = Permeability through monolayer of Caco-2 cells; format: in vitro ADME; conditions: human, Caco-2 monolayer; for Papp A→B at 2 h, 10 µM: pH 6.5 upper / pH 7.4 lower, 2 h at 37° C.; for efflux ratio at 2 h, 10 µM: Papp B-A/Papp A-B
Description: 2) Assessment of permeability through monolayer of Caco-2 cells.
Assessment of permeability through the monolayer of Caco-2 cells allows to evaluate the ability of the candidate compounds to penetrate through biological membranes by active and passive transport.
Caco-2, the cells of the intestinal epithelium, had been cultured in transwell plate inserts with the filters (with pores of 0.4 μm, BD Falcon with High Density) for 21 days, and then the integrity of the monolayer were estimated with Lucifer Yellow (Sigma-Aldrich, USA) by standard protocol. When setting the A→B transfer (“intestinal lumen”—“blood stream” transfer), solutions of test substances were added in a buffer with pH 6.5 (HBSS, 10 mM HEPES, 15 mM glucose solution) with the concentration of 10 μM into the upper chamber; the lower chamber was filled with a buffer with pH 7.4 (HBSS, 10 mM HEPES, 15 mM Glucose, 1% BSA). When setting B→A transfer (“blood stream”—“intestinal lumen” transfer), the upper chamber was filled with the buffer with pH 6.5, and solutions of the test substances were added in the buffer with pH 7.4 at the concentration of 10 μM in the lower chamber. Propranolol was used as a control substance (as it has high permeability).
After incubating for 2 h at 37° C. under 5% CO2, the amounts of test substances were determined in the upper and lower chambers by HPLC using Agilent1200 chromatograph (Agilent, USA) with preliminary protein precipitation with acetonitrile. We used gradient elution (1 mL/min flow rate). We determined the areas of peaks corresponding to the compounds. On the basis of peak areas in the calibration standards we determined the concentration of compound in the initial solution and in the samples from the wells of the upper and lower chambers. Papp, permeability through the cell layer, was calculated using the following formula:
Papp=(C(t)*V)/(C(0)*t*Area), wherein
The value was calculated with the following formula:
efflux=Papp B-A/Papp A-B, wherein • Papp A-B—the volume of permeability in A→B test; • Papp B-A—he volume of permeability in B→A test.

C=CC(=O)Nc1cc(Nc2cc(C(=O)c3ccc(N4CC(OC)C4)cc3)ccn2)c(OC)cc1N(C)CCN(C)C (racemic) [EGFR_3365_53, N-(2-((2-(dimethylamino)ethyl)(methyl)amino)-4-methoxy-5-((4-(4-(3-methoxyazetidin-1-yl)benzoyl)pyridin-2-yl)amino)phenyl)acrylamide]
CC50 at 72 h [1]: 20.6 µM | TI, CC50/IC50 [2]: 457 | Stability in blood plasma, % [3]: 91.8% | IC50 [4]: 0.00731 µM | SI, IC50(WT)/IC50(DM) [4]: 25.06 | Intrinsic clearance in human liver S9 fractions at 10 µM [5]: 10.1 µL/min/mg

C=CC(=O)Nc1cc(Nc2cc(C(=O)c3ccccc3)ccn2)c(OC)cc1N(C)CCN(C)C [EGFR_3365_3, N-(5-((4-benzoylpyridin-2-yl)amino)-2-((2-(dimethylamino)ethyl)(methyl)amino)-4-methoxyphenyl)acrylamide]
CC50 at 72 h [1]: 15.2 µM | TI, CC50/IC50 [2]: 341 | Papp A→B at 2 h, 10 µM [6]: 5.9 ×10⁻⁶ cm/s | efflux ratio at 2 h, 10 µM [6]: 0.8 | Stability in blood plasma, % [3]: 82.1% | IC50 [4]: 0.0145 µM | SI, IC50(WT)/IC50(DM) [4]: 5.29

C=CC(=O)Nc1cc(Nc2nccc(C(=O)c3ccccc3Br)n2)c(OC)cc1N(C)CCN(C)C [EGFR_3365_12, N-(5-((4-(2-bromobenzoyl)pyrimidin-2-yl)amino)-2-((2-(dimethylamino)ethyl) (methyl)amino)-4-methoxyphenyl)acrylamide]
CC50 at 72 h [1]: 22.6 µM | TI, CC50/IC50 [2]: 1051 | Papp A→B at 2 h, 10 µM [6]: 1.94 ×10⁻⁶ cm/s | efflux ratio at 2 h, 10 µM [6]: 0.98 | Stability in blood plasma, % [3]: 76.3% | IC50 [4]: 0.0255 µM | SI, IC50(WT)/IC50(DM) [4]: 15.25

C=CC(=O)Nc1cc(Nc2nccc(C(=O)c3ccc(OCc4ccccc4)cc3)n2)c(OC)cc1N(C)CCN(C)C [EGFR_3365_16, N-(5-((4-(4-(benzyloxy)benzoyl)pyrimidin-2-yl)amino)-2-((2-(dimethylamino)ethyl)(methyl)amino)-4-methoxyphenyl)acrylamide]
CC50 at 72 h [1]: 5.79 µM | TI, CC50/IC50 [2]: 108 | Stability in blood plasma, % [3]: 83.5% | IC50 [4]: 0.0328 µM | SI, IC50(WT)/IC50(DM) [4]: 4.70 | Intrinsic clearance in human liver S9 fractions at 10 µM [5]: 17.9 µL/min/mg

C=CC(=O)Nc1cc(Nc2nccc(C(=O)c3ccc(Oc4ccccc4)cc3)n2)c(OC)cc1N(C)CCN(C)C [EGFR_3365_17, N-(2-((2-(dimethylamino)ethyl)(methyl)amino)-4-methoxy-5-((4-(4-phenoxybenzoyl)pyrimidin-2-yl)amino)phenyl)acrylamide]
CC50 at 72 h [1]: 6.32 µM | TI, CC50/IC50 [2]: 16 | Stability in blood plasma, % [3]: 97.0% | IC50 [4]: 0.0215 µM | SI, IC50(WT)/IC50(DM) [4]: 7.95 | Intrinsic clearance in human liver S9 fractions at 10 µM [5]: 10.9 µL/min/mg

C=CC(=O)Nc1cc(Nc2nccc(C(=O)c3ccc(OC)cc3)n2)c(OC)cc1N(C)CCN(C)C [EGFR_3365_28, N-(2-((2-(dimethylamino)ethyl)(methyl)amino)-4-methoxy-5-((4-(4-methoxybenzoyl)pyrimidin-2-yl)amino)phenyl)acrylamide]
CC50 at 72 h [1]: 31.4 µM | TI, CC50/IC50 [2]: 1836 | Papp A→B at 2 h, 10 µM [6]: 3.84 ×10⁻⁶ cm/s | efflux ratio at 2 h, 10 µM [6]: 1.87 | Stability in blood plasma, % [3]: 86.2% | IC50 [4]: 0.00627 µM | SI, IC50(WT)/IC50(DM) [4]: 20.33

C=CC(=O)Nc1cc(Nc2nccc(C(=O)c3ccc(OCC)cc3)n2)c(OC)cc1N(C)CCN(C)C [EGFR_3365_29, N-(2-((2-(dimethylamino)ethyl)(methyl)amino)-5-((4-(4-ethoxybenzoyl)pyrimidin-2-yl)amino)-4-methoxyphenyl) acrylamide]
CC50 at 72 h [1]: 30.6 µM | TI, CC50/IC50 [2]: 1135 | Papp A→B at 2 h, 10 µM [6]: 4.26 ×10⁻⁶ cm/s | efflux ratio at 2 h, 10 µM [6]: 1.5 | Stability in blood plasma, % [3]: 79.7% | IC50 [4]: 0.0107 µM | SI, IC50(WT)/IC50(DM) [4]: 18.79

C=CC(=O)Nc1cc(Nc2nccc(C(=O)c3ccc(OC(C)C)cc3)n2)c(OC)cc1N(C)CCN(C)C [EGFR_3365_31, N-(2-((2-(dimethylamino)ethyl)(methyl)amino)-5-((4-(4-isopropoxybenzoyl)pyrimidin-2-yl)amino)-4-methoxyphenyl) acrylamide]
CC50 at 72 h [1]: 9.49 µM | TI, CC50/IC50 [2]: 1293 | Papp A→B at 2 h, 10 µM [6]: 3.7 ×10⁻⁶ cm/s | efflux ratio at 2 h, 10 µM [6]: 1.1 | Stability in blood plasma, % [3]: 93.1% | IC50 [4]: 0.00865 µM | SI, IC50(WT)/IC50(DM) [4]: 15.12

C=CC(=O)Nc1cc(Nc2cc(C(=O)c3ccc(N4CCN(C)CC4)cc3)ccn2)c(OC)cc1N(C)CCN(C)C [EGFR_3365_55, N-(2-((2-(dimethylamino)ethyl)(methyl)amino)-4-methoxy-5-((4-(4-(4-methylpiperazin-1-yl)benzoyl)pyridin-2-yl)amino)phenyl)acrylamide]
CC50 at 72 h [1]: 13.3 µM | TI, CC50/IC50 [2]: 63 | Stability in blood plasma, % [3]: 84.8% | IC50 [4]: 0.0254 µM | SI, IC50(WT)/IC50(DM) [4]: 3.02 | Intrinsic clearance in human liver S9 fractions at 10 µM [5]: 5 µL/min/mg

C=CC(=O)Nc1cc(Nc2nccc(C(=O)c3ccc(N4CCN(C)CC4)cc3)n2)c(OC)cc1N(C)CCN(C)C [EGFR_3365_62, N-(2-((2-(dimethylamino)ethyl)(methyl)amino)-4-methoxy-5-((4-(4-(4-methylpiperazin-1-yl)benzoyl)pyrimidin-2-yl)amino)phenyl)acrylamide formate]
CC50 at 72 h [1]: 31.1 µM | TI, CC50/IC50 [2]: 512 | Stability in blood plasma, % [3]: 98.4% | IC50 [4]: 0.00658 µM | SI, IC50(WT)/IC50(DM) [4]: 19.37 | Intrinsic clearance in human liver S9 fractions at 10 µM [5]: 3.7 µL/min/mg

C=CC(=O)Nc1cc(Nc2nccc(C(=O)c3ccc(OCC)cc3OCC)n2)c(OC)cc1N(C)CCN(C)C [EGFR_3365_68, N-(5-((4-(2,4-diethoxybenzoyl)pyrimidin-2-yl)amino)-2-((2-(dimethylamino)ethyl) (methyl)amino)-4-methoxyphenyl)acrylamide]
CC50 at 72 h [1]: 28.6 µM | TI, CC50/IC50 [2]: 825 | Stability in blood plasma, % [3]: 78.4% | IC50 [4]: 0.00903 µM | SI, IC50(WT)/IC50(DM) [4]: 10.40 | Intrinsic clearance in human liver S9 fractions at 10 µM [5]: 14.5 µL/min/mg

C=CC(=O)Nc1cc(Nc2nccc(C(=O)c3ccc(OC)cc3OC)n2)c(OC)cc1N(C)CCN(C)C [EGFR_3365_69, N-(5-((4-(2,4-dimethoxybenzoyl)pyrimidin-2-yl)amino)-2-((2-(dimethylamino)ethyl)(methyl)amino)-4-methoxyphenyl)acrylamide]
CC50 at 72 h [1]: 51.9 µM | TI, CC50/IC50 [2]: 6549 | Stability in blood plasma, % [3]: 100.0% | IC50 [4]: 0.00259 µM | SI, IC50(WT)/IC50(DM) [4]: 9.12 | Intrinsic clearance in human liver S9 fractions at 10 µM [5]: 14.4 µL/min/mg

C=CC(=O)Nc1cc(Nc2cc(C(=O)c3ccc(-c4cnn(C)c4)cc3)ccn2)c(OC)cc1N(C)CCN(C)C [EGFR_3365_85, N-(2-((2-(dimethylamino)ethyl)(methyl)amino)-4-methoxy-5-((4-(4-(1-methyl-1H-pyrazol-4-yl)benzoyl)pyridin-2-yl)amino)phenyl) acrylamide]
CC50 at 72 h [1]: 21.2 µM | TI, CC50/IC50 [2]: 153 | Stability in blood plasma, % [3]: 100.0% | IC50 [4]: 0.00836 µM | SI, IC50(WT)/IC50(DM) [4]: 7.17 | Intrinsic clearance in human liver S9 fractions at 10 µM [5]: 17.8 µL/min/mg

C=CC(=O)Nc1cc(Nc2nccc(C(=O)c3cc4ccccc4n3C)n2)c(OC)cc1N(C)CCN(C)C [EGFR_3365_94, N-(2-((2-(dimethylamino)ethyl) (methyl)amino)-4-methoxy-5-((4-(1-methyl-1H-indole-2-carbonyl)pyrimidin-2-yl)amino)phenyl)acrylamide]
CC50 at 72 h [1]: 12 µM | TI, CC50/IC50 [2]: 1801 | Papp A→B at 2 h, 10 µM [6]: 6.54 ×10⁻⁶ cm/s | efflux ratio at 2 h, 10 µM [6]: 0.86 | Stability in blood plasma, % [3]: 83.3% | IC50 [4]: 0.00141 µM | SI, IC50(WT)/IC50(DM) [4]: 18.02

— patent US20200339544A1 (JOINT STOCK COMPANY "BIOCAD", priority 2017, published 2020)
